# Tests used:
# giant foxtail = assay: Test B pre-/postemergence herbicide test; format: in vivo, Setaria faberi; conditions: for Plant response rating (0 to 100 scale), Foxtail, Giant: 0 is no effect; for Plant response rating (0 to 100 scale), Foxtail, Giant / Plant response rating, Foxtail, Giant: preemergence; for Plant response rating, Foxtail, Giant: 0 = no effect, 100 = complete control
# In short: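 Herbicidal effect was judged by eye on a 0–100 scale after plants stood 13 to 15 days in the greenhouse following pre- or postemergence treatment with surfactant-containing formulations.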
# cocklebur = assay: Test C pre-/postemergence herbicide test; format: in vivo, Xanthium strumarium
# In short: (§1)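 Pre- and postemergence application, solvent/surfactant formulation; post at 1- to 4-leaf stage (2–18 cm). Greenhouse 12–14 d. Visual rating vs controls, 0 = no effect, 100 = complete control.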
# corn = assay: Test C pre-/postemergence herbicide test; format: in vivo, Zea mays
# In short: as §1
# kochia = assay: Test C pre-/postemergence herbicide test; format: in vivo, Kochia scoparia
# In short: as §1
# yellow nutsedge = assay: Test C pre-/postemergence herbicide test; format: in vivo, Cyperus esculentus
# In short: as §1
# pigweed = assay: Test C pre-/postemergence herbicide test; format: in vivo, Amaranthus retroflexus
# In short: as §1
# ducksalad = assay: Test C flooded paddy test; format: in vivo, Heteranthera limosa; conditions: for Plant response rating, Ducksalad: 500 g ai/ha, visual rating after 12 to 14 days
# barnyardgrass = assay: Test C flooded paddy test; format: in vivo, Echinochloa crus-galli; conditions: for Plant response rating, Barnyardgrass: 500 g ai/ha, visual rating after 12 to 14 days
# In short: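 Weeds and wheat were sprayed after emergence, at a height of 2 to 18 cm (1–4 leaves), and paddy barnyardgrass was flooded and treated at two leaves. Assessment took place 12–14 days later in the greenhouse on a 0-to-100 visual control scale. A dash means no result was obtained.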
# [1] = 125 g ai/ha, 100 is complete control
# [2] = 125 g ai/ha, visual rating, scale 0 (no effect) to 100 (complete control), postemergence
# [3] = postemergence, 500 g ai/ha, scale 0 to 100, 0 is no effect, 100 is complete control
# [4] = 62 g ai/ha, preemergence, scale 0 to 100
# [5] = 125 g ai/ha, scale 0 (no effect) to 100 (complete control), visual, 12 to 14 days, preemergence
# [6] = 250 g ai/ha, scale 0-100, preemergence
# [7] = Postemergence, 500 g ai/ha, scale 0 to 100
# [8] = Postemergence, 250 g ai/ha, scale 0 to 100, 0 no effect, 100 complete control
# [9] = postemergence, 125 g ai/ha, scale 0 to 100
# [10] = postemergence, 62 g ai/ha, scale 0 to 100
# [11] = 500 g ai/ha, scale 0 to 100 (0 no effect, 100 complete control), visual, 12 to 14 days, preemergence
# [12] = 125 g ai/ha, scale 0 to 100 (0 no effect, 100 complete control)
# [13] = 250 g ai/ha, scale of 0 to 100, 0 is no effect, 100 is complete control
# [14] = scale 0 to 100 (0 no effect, 100 complete control)
# [15] = 62 g ai/ha, scale 0 to 100 (0 no effect, 100 complete control)
compound,measurement,setting,value
CCn1nc(C(C)(C)C)cc1C(=O)Nc1cccc(OC(F)F)c1 [Compound 332],"Plant response rating (0 to 100 scale), Foxtail, Giant",giant foxtail; [1],20
same,"Foxtail, Giant plant response rating",giant foxtail; [2],30
same,"Plant response rating, Foxtail, Giant","giant foxtail; 500 g ai/ha, visual rating",60
same,"Foxtail, Giant plant response rating",giant foxtail; [3],50
same,"Plant response rating, Cocklebur",cocklebur; [4],0
same,"Plant response rating, Cocklebur",cocklebur; [5],0
same,"Plant response rating, Cocklebur",cocklebur; [6],0
same,Cocklebur plant response rating,cocklebur; [7],15
same,"Plant response rating, Cocklebur",cocklebur; [8],10
same,Cocklebur plant response rating,"cocklebur; Preemergence, 500 g ai/ha, scale 0 to 100, 0 no effect, 100 complete control",0
same,"Plant response rating, Cocklebur",cocklebur; [9],10
same,"Plant response rating, Cocklebur",cocklebur; [10],5
same,"Plant response rating, Corn",corn; [4],0
same,"Plant response rating, Corn",corn; [5],0
same,"Plant response rating, Corn",corn; [6],0
same,"Plant response rating, Corn",corn; [11],5
same,Corn plant response rating,corn; [7],5
same,"Plant response rating, Corn",corn; [8],5
same,"Plant response rating, Corn",corn; [9],0
same,"Plant response rating, Corn",corn; [10],0
same,"Plant response rating, Kochia",kochia; [4],100
same,"Plant response rating, Kochia",kochia; [5],100
same,"Plant response rating, Kochia",kochia; [6],100
same,"Plant response rating, Kochia",kochia; [11],100
same,Kochia plant response rating,kochia; [7],100
same,"Plant response rating, Kochia",kochia; [8],95
same,"Plant response rating, Kochia",kochia; [9],90
same,"Plant response rating, Kochia",kochia; [10],80
same,"Plant response rating, Nutsedge, Yellow",yellow nutsedge; [4],0
same,"Plant response rating, Nutsedge, Yellow",yellow nutsedge; [5],0
same,"Plant response rating, Nutsedge, Yellow",yellow nutsedge; [6],0
same,"Plant response rating, Nutsedge, Yellow",yellow nutsedge; [11],0
same,"Nutsedge, Yellow plant response rating",yellow nutsedge; [7],0
same,"Plant response rating, Nutsedge, Yellow",yellow nutsedge; [8],0
same,"Plant response rating, Nutsedge, Yellow",yellow nutsedge; [9],0
same,"Plant response rating, Nutsedge, Yellow",yellow nutsedge; [10],0
same,"Plant response rating, Pigweed",pigweed; [4],100
same,"Plant response rating, Pigweed",pigweed; [5],100
same,"Plant response rating, Pigweed",pigweed; [6],100
same,"Plant response rating, Pigweed",pigweed; [11],100
same,Pigweed plant response rating,pigweed; [7],95
same,"Plant response rating, Pigweed",pigweed; [8],95
same,"Plant response rating, Pigweed",pigweed; [9],90
same,"Plant response rating, Pigweed",pigweed; [10],85
same,Ducksalad plant response rating,"ducksalad; 62 g ai/ha, scale 0 to 100",20
same,Ducksalad plant response rating,ducksalad; [12],90
same,Ducksalad plant response rating,ducksalad; [13],95
same,"Plant response rating, Ducksalad",ducksalad; [14],95
same,Barnyardgrass plant response rating,barnyardgrass; [15],5
same,Barnyardgrass plant response rating,barnyardgrass; [12],25
same,Barnyardgrass plant response rating,barnyardgrass; [13],50
same,"Plant response rating, Barnyardgrass",barnyardgrass; [14],60
CCNC(=O)c1cccc(NC(=O)c2nn(C(C)(C)C)nc2C)c1 [Compound 392],"Plant response rating (0 to 100 scale), Foxtail, Giant",giant foxtail; [1],80
same,"Foxtail, Giant plant response rating",giant foxtail; [2],20
same,"Foxtail, Giant plant response rating","giant foxtail; Postemergence, 500 g ai/ha, scale 0 (no effect) to 100 (complete control)",30
same,"Plant response rating, Cocklebur",cocklebur; [4],0
same,"Plant response rating (0 = no effect, 100 = complete control), Cocklebur","cocklebur; 125 g ai/ha, preemergence",5
same,"Plant response rating, Cocklebur",cocklebur; [6],20
same,"Plant response rating, Cocklebur",cocklebur; [11],80
same,"Plant response rating, Corn",corn; [4],30
same,"Plant response rating (0 = no effect, 100 = complete control), Corn","corn; 125 g ai/ha, preemergence",50
same,"Plant response rating, Corn",corn; [6],80
same,"Plant response rating, Corn",corn; [11],90
same,"Plant response rating, Kochia",kochia; [4],75
same,"Plant response rating (0 = no effect, 100 = complete control), Kochia","kochia; 125 g ai/ha, preemergence",80
same,"Plant response rating, Kochia",kochia; [6],100
same,"Plant response rating, Kochia",kochia; [11],100
same,"Plant response rating, Nutsedge, Yellow",yellow nutsedge; [4],0
same,"Plant response rating (0 = no effect, 100 = complete control), Nutsedge, Yellow","yellow nutsedge; 125 g ai/ha, preemergence",10
same,"Plant response rating, Nutsedge, Yellow",yellow nutsedge; [6],30
same,"Plant response rating, Nutsedge, Yellow",yellow nutsedge; [11],90
same,"Plant response rating, Pigweed",pigweed; [4],100
same,"Plant response rating (0 = no effect, 100 = complete control), Pigweed","pigweed; 125 g ai/ha, preemergence",100
same,"Plant response rating, Pigweed",pigweed; [6],100
same,"Plant response rating, Pigweed",pigweed; [11],100
same,Ducksalad plant response rating,"ducksalad; 62 g ai/ha, scale 0 to 100",45
same,Ducksalad plant response rating,ducksalad; [12],75
same,Ducksalad plant response rating,ducksalad; [13],85
same,"Plant response rating, Ducksalad",ducksalad; [14],85
same,Barnyardgrass plant response rating,barnyardgrass; [15],15
same,Barnyardgrass plant response rating,barnyardgrass; [12],45
same,Barnyardgrass plant response rating,barnyardgrass; [13],80
same,"Plant response rating, Barnyardgrass",barnyardgrass; [14],90
CCC1=NN(C(C)(C)C)CC1C(=O)Nc1cc(C(=O)N(C)C)ccc1F (racemic) [Compound 343],"Plant response rating (0 to 100 scale), Foxtail, Giant",giant foxtail; [1],30
same,"Foxtail, Giant plant response rating",giant foxtail; [2],30
same,"Plant response rating, Foxtail, Giant","giant foxtail; 500 g ai/ha, visual rating",100
same,"Foxtail, Giant plant response rating",giant foxtail; [3],50
same,"Plant response rating, Cocklebur",cocklebur; [4],30
same,"Plant response rating (0 = no effect, 100 = complete control), Cocklebur","cocklebur; 125 g ai/ha, preemergence",80
same,"Plant response rating, Cocklebur",cocklebur; [6],80
same,"Plant response rating, Cocklebur",cocklebur; [11],100
same,"Plant response rating, Corn",corn; [4],40
same,"Plant response rating (0 = no effect, 100 = complete control), Corn","corn; 125 g ai/ha, preemergence",70
same,"Plant response rating, Corn",corn; [6],70
same,"Plant response rating, Corn",corn; [11],80
same,"Plant response rating, Kochia",kochia; [4],90
same,"Plant response rating (0 = no effect, 100 = complete control), Kochia","kochia; 125 g ai/ha, preemergence",100
same,"Plant response rating, Kochia",kochia; [6],100
same,"Plant response rating, Kochia",kochia; [11],100
same,"Plant response rating, Nutsedge, Yellow",yellow nutsedge; [4],5
same,"Plant response rating (0 = no effect, 100 = complete control), Nutsedge, Yellow","yellow nutsedge; 125 g ai/ha, preemergence",10
same,"Plant response rating, Nutsedge, Yellow",yellow nutsedge; [6],60
same,"Plant response rating, Nutsedge, Yellow",yellow nutsedge; [11],90
same,"Plant response rating, Pigweed",pigweed; [4],80
same,"Plant response rating (0 = no effect, 100 = complete control), Pigweed","pigweed; 125 g ai/ha, preemergence",90
same,"Plant response rating, Pigweed",pigweed; [6],100
same,"Plant response rating, Pigweed",pigweed; [11],100
same,Ducksalad plant response rating,"ducksalad; 62 g ai/ha, scale 0 to 100",40
same,Ducksalad plant response rating,ducksalad; [12],80
same,Ducksalad plant response rating,ducksalad; [13],90
same,"Plant response rating, Ducksalad",ducksalad; [14],90
same,Barnyardgrass plant response rating,barnyardgrass; [15],20
same,Barnyardgrass plant response rating,barnyardgrass; [12],20
same,Barnyardgrass plant response rating,barnyardgrass; [13],60
same,"Plant response rating, Barnyardgrass",barnyardgrass; [14],80

# — US20060069132A1, “Azolecarboxamide herbicides” (priority 2004, published 2006)
